Assay: XTT cytotoxicity assay according to ISO 10993
Details: mouse
Description: A larger scale batch (100 Liter) of Formulation E was further evaluated in more detail with an XTT test according to ISO 10993, published by the International Organization for Standardization: “Biological Evaluation of Medical Devices”, Part 1: “Evaluation and testing within a risk management process”, 2018, Part 5: “Tests for in vitro cytotoxicity”, 2009 using a valuated method from the ICCR-Roßdorf GmbH (Germany) and a Xenometrix test kit. With the XTT assay, cell proliferation and viability as well as the mitochondrial metabolic competence of the cells after treatment with a test item is determined […]. The XTT test is based on the cleavage of the yellow tetrazolium salt XTT [_(sodium 3′-(1-phenylaminocarbonyl)-(3,4-tetrazolium)-bis-(4-methoxy-6-nitro)-benzenesulfonic acid hydrate)] to form an orange water soluble formazan dye by dehydrogenase activity in active mitochondria. This method was first described 1988 by SCUDIERO et al.
In brief, the potential cytotoxic effect was evaluated with a dilution series of formulation E in complete medium [RPMI 1640 medium (including glutamax), supplemented with 10% FCS, 1 mM sodium pyruvate, and 100 units/mL penicillin, and 100 μg/mL streptomycin] resulting in the following end concentrations 39.1 μg/mL, 78.1 μg/mL, 156 μg/mL, 313 μg/mL, 625 μg/mL, 1250 μg/mL; 2500 μg/mL, 5000 μg/mL. Subsequently the effect of the solution was examined after 24±1 h treatment time on prior prepared mouse L929 cell line (supplied by DSMZ, 38124 Braunschweig, Germany). In parallel several controls were tested as well:
Medium Control=Complete medium; Solvent control=Complete medium, Positive control=Sodium dodecyl sulfate (SDS; purity: ≥99%); Solvent=deionized water, diluted with complete medium to a ratio of 1:10 (v/v). The positive control was tested in 8 concentrations in a range from 3.1-250 μg/mL. Solvent control for the positive control=Complete medium and 10% (v/v) deionized water.
At the end of the incubation period, 50 μL of the XTT labelling mixture (Xenometrix, Allschwil, Switzerland) were added to each well. The cells were incubated and subsequently transferred to a microplate reader and the absorbance values were determined (Versamax® Molecular Devices, software SoftMax Pro Enterprise (version 4.7.1)) at 450 nm (reference wavelength 690 nm). A decrease in number of living cells results in a decrease in the overall activity of mitochondrial dehydrogenases in the sample. This decrease directly correlates to the amount of orange formazan formed, as monitored by the absorbance. The relative absorbance (=viability) as compared to the solvent control is calculated using this formula: […]
To calculate the concentration of toxicant required to reduce the relative absorbance to 50% of the solvent control (XTT50) the following formula is used:
[formula] • a) Conc.>50=max. measured concentration with the % of solvent control >50% • b) Conc.<50=min. measured concentration with the % of solvent control <50% • c) %>50=relative absorbance at a) in % • d) %<50=relative absorbance at b) in %
The lower the XTT50 value, the higher is the cytotoxic potential of the test item.

SMILES: CCCCCCCCCCCCOS(=O)(=O)[O-].[Na+] [SDS, Sodium dodecyl sulfate]
- viability at 3.1 μg/mL: 96.9%
- viability at 6.3 μg/mL: 97.2%
- viability at 12.5 μg/mL: 99.9%
- viability at 25 μg/mL: 91.7%
- viability at 50 μg/mL: 85%
- viability at 100 μg/mL: 5.8%
- viability at 125 μg/mL: 1.63%
- viability at 250 μg/mL: 0.16%

— patent US12527327B2, “High hyaluronate multi-purpose disinfection solutions for ophthalmic applications” (CIS BIOPHARMA AG, priority 2019, dated 2026)
